Each block holds one compound with its values, some of them ahead of it.
Assays:
human TRPM8 = assay: TRPM8 Protocol-FLIPR Assay (intracellular Ca2+); type: cell-based; conditions: HEK-293 cells stably transfected with human TRPM8, Fluo-4 AM, relative to benchmark agonist WS-5
Description: To determine whether TRPM8 is activated, the intracellular calcium ion (Ca^2+) level was measured from transfected cells with the TRPM8 receptor sequence (SEQ ID NO: 1). HEK-293 (human embryonic kidney) cells stably transfected with human TRPM8 were grown in 15 mL growth medium (high glucose DMEM (Dulbecco's Modification of Eagle's Medium) supplemented with 10% FBS (fetal bovine serum), 100 μg/mL penicillin/streptomycin, 5 μg/mL blasticindin, and 100 μg/mL zeocin) in a 75 cm^2 flask for 3 days at 37° C. in a mammalian cell culture incubator (Forma Scientific Model 3110, Marietta, Ohio) set at 5% CO2. Cells were detached with addition of 2 mL of trypsin-EDTA buffer (GIBCO® 25200, Invitrogen, Grand Island, N.Y.) for about 2-3 min. Trypsin was inactivated by addition of 8 mL growth medium. Cells were transferred to a 50 mL tube and centrifuged at 850 rpm for 3 minutes to remove medium. After centrifugation, a pellet of cells was formed in the bottom of the tube separating them from the supernatant solution. The supernatant was discarded and the cell pellet was suspended in 1 mL of fresh growth medium to which 5 μL (12.5 μg) of Fluo-4 AM (Molecular Probes, Inc., Eugene, Oreg.) calcium indicator was added and incubated for 30 min with gentle shaking. Fluo-4 AM is a fluorescent dye used for quantifying cellular Ca^2+ concentrations in the 100 nM to 1 μM range. At the end of 30 minutes, 45 mL of assay buffer (1×HBSS (Hank's Balanced Salt Solution), 20 mM HEPES (4-(2-Hydroxyethyl)-1-piperazineethanesulfonic acid)) was added to wash cells and the resulting mixture was then centrifuged at 850 rpm for 3 minutes at 20° C. to remove excess buffer and Fluo-4 AM calcium indicator.
The pelleted cells were re-suspended in 10 mL assay buffer and 90 μL aliquots (˜50,000 cells) per well delivered to a 96-well assay plate containing 10 μL of test compounds (1 mM in assay buffer, final concentration 100 μM) or buffer control and incubated at room temperature for 30 minutes. After 30 minutes, a plate (Falcon 353219, Corning Corning N.Y.) was placed into a fluorometric imaging plate reader (FLIPR384 from Molecular Devices, Sunnyvale, Calif.) and basal fluorescence recorded (excitation wave length 488 nm and emission wave length 510 nm). Then 20 μL of 100 mM of TRPM8 agonist WS5 coolant in the assay buffer was added and fluorescence recorded. For determining the direct effect of test compounds on TRPM8, fluorescence was measured immediately after addition of each compound (TABLE 1). Additional discussion of the FLIPR method can be found in Smart et al., Characterization using FLIPR of human vanilloid VR1 receptor pharmacology, European Journal of Pharmacology 417, 51-58 (2001) and Liu et al., Development and validation of a platelet calcium flux assay using a fluorescent imaging plate reader, Analytical Biochemistry 357, 216-224 (2006).
The magnitude of the fluorescence of the active-treated cells was compared to the magnitude of the fluorescence from a benchmark agonist (WS-5), as described above. The percentage of fluorescence as a function of active dose was plotted and a sigmoidal curve was generated. Curve fitting from this dose-response curve yielded the value for TRPM8 IC50 in nM.
TRPM8 activation was determined by measuring intracellular calcium ion (Ca^2+) level from transfected cells with the TRPM8 receptor gene, as described in EXAMPLE 1, the results of which are shown in TABLE 1. IC50 values are provided in column 3 of TABLE 1, which measured the concentration of activating compound needed to reduce intracellular [Ca^2+] by 50%. […]

[1] = system: Human subcutaneous pre-adipocytes; assay: Lipogenesis Assay (AdipoRed staining); type: cell-based; conditions: AdipoRed fluorescence, NI = no inhibition at concentration less than/equal to 1 mM
Description: Lipogenesis is the process by which acetyl-CoA is converted to fatty acid. Through lipogenesis and subsequent triglyceride synthesis, energy can be stored in the form of adipose tissue (i.e. fats). To determine what effect, if any, activating compounds (shown in TABLE 1) had on lipogenesis, the protocol listed below was used.
To determine whether the activating compounds (shown in TABLE 1) impacted the formation of white adipocytes from pre-adipocytes, a lipogenesis assay was performed. The cells utilized in the protocol were cryo-preserved Human subcutaneous pre-adipocytes superlot (Zen-Bio, Inc., Research Triangle Park, N.C., Cat # SP-F-SL). The growth media used was PM-1 (Zen-Bio, Inc., Research Triangle Park, N.C., cat # PM-1) plus 5 ng/mL Epidermal Growth Factor (EGF). The PM-1+5 ng/mL EGF was prepared by adding 12.5 uL of 200 ug/mL EGF stock to 500 mL PM-1. The differentiation media used was DM-2 (Zen-Bio, Inc., Research Triangle Park, N.C., cat # DM-2). The adipocyte maintenance media used was AM-1 (Zen-Bio, Inc., Research Triangle Park, N.C., cat # AM-1).
First, the human subcutaneous pre-adipocyte cells were thawed in a 37° C. water bath. Next, the thawed pre-adipocyte cells were added to 9 mL of growth medium (PM-1) at 20° C. in a 15 mL polypropylene tube (Bioexpress, Corning, Corning, N.Y.). The tube was centrifuged at 280×g (˜1100 rpm) at 20° C. for 5 min. After 5 min, the supernatant was removed and the accumulated solids were re-suspended in 2 mL of PM-1 using trituration. The suspension of cells was counted under 100× magnification using a Cyto C-Chip hemacytometer (Incyto, Seoul, South Korea, cat # DHC-N01-5). In order to proceed, 15-50 cells per 1×1 mm square in hemacytometer was needed. If, the number of cells per square was not met, 6.7×10^5 (670,000) cells per T75 flask (Bioexpress, Corning, Corning, N.Y.) were added to each square and the suspension was diluted to 20 mL with PM-1. Every other day, new media was added to replace media removed due to metabolism by the cells. The cells were re-counted as described previously. Cells were grown to 80-90% confluence, which took approximately 4-5 days. 80-90% confluence is determined by visual inspection of the area of the flask occupied by the cells. When 80-90% of the flask area has been occupied, cells are at 80-90% confluence. Cell colonies were then split 1:6 by harvesting from a single flask and equally dividing the harvested cells into six flasks. Colonies were not allowed to exceed 3 passages and were not grown to complete confluence. The pre-adipocytes were grown until they contact with other cells in the flask to aid differentiation into white or brown adipocytes.
After the pre-adipocytes were sufficiently grown to 90% confluence, the cells were ready for differentiation and treatment with an activating compound. Cells were washed with 3 mL of PBS and detached using 3 mL of Trypsin EDTA. The cells were incubated at 37° C. for 5 minutes. Next, the cells were centrifuged at 280×g at 20° C. for 5 minutes. The supernatant was discarded and the resulting pellet was re-suspended in 10 mL of PM-1 using trituration. Cells were counted at 100× magnification and the cells were diluted to 86,667 cells/mL (˜13,000 cells/150 μL) by adding the necessary amount of PM-1 to achieve the desired concentration. Upon addition of PM-1, samples were swirled by hand to evenly disperse the cells prior to plating.
Once confluence is reached, 150 μL of differentiation media (DM-2) was added (DAY 0). Samples were incubated at 37° C. for 6 days. On DAY 6, 90 μL of media was removed from each sample via aspiration, without touching the bottom of the well. Next, 140 μL of adipocyte maintenance medium (AM-1) was added. The AM-1 ran down the side of well. On DAY 6, activating compounds were added (2 μL of 10 mM activating compound) to give a final concentration of 100 μM of activating compounds. […]

adipocytes = assay: Real Time PCR analysis of adipocytes, in vitro; type: cell-based, human
Description: For Real Time PCR analysis of adipocytes, cells from cultures grown in 24 well plates were collected. RNA was isolated using RNeasy Kit (Cat 74104, Qiagen, Germantown, Md.) using manufacturer's protocol. RNA was quantitated using the Nanodrop 1000 (Thermofisher, Waltham, Mass.). cDNA formation was carried out using PowerUp SYBR™ Green Master Mix and real time PCR carried out on QuantStudio 6 machine (ThermoFisher, Waltham, Mass.) per manufacturer protocol. ΔΔCT analysis was done using the Expression Suite software (ThermoFisher) purchased with the instrument.
TABLE 2 used Real Time PCR to determine which proteins were expressed in adipocytes upon treatment with activating compounds. […] Real Time PCR values were relative to a control sample that was not treated with any activating compounds. […] In WS-5 and Menthol, no Real Time PCR value was over 2.0, which indicated only slight changes in mRNA expression.

[2] = Real Time PCR, relative to untreated control = 1

Compound: CC(C)[C@@H]1CC[C@@H](C)C[C@H]1C(=O)NCC(NC(=O)[C@H](C)N)c1ccccc1 (stereo partly drawn) [Comparative Example 2]
IC50 (human TRPM8): 0.01 to 0.012 µM
IC50 [1]: 900 µM
IC50 ([1]; Homo sapiens): 800 µM

Compound: CC(C)[C@@H]1CC[C@@H](C)C[C@H]1C(=O)NC[C@@H](NC(=O)[C@@H](C)N)c1ccccc1 [Formula IV]
IC50 ([1]; Homo sapiens): 800 µM
Relative Expression of mRNA in Adipocytes: 18S (adipocytes; [2]): 0.95
Relative Expression of mRNA in Adipocytes: ACADM (adipocytes; [2]): 1.4
Relative Expression of mRNA in Adipocytes: CPT1A (adipocytes; [2]): 1.7
Relative Expression of mRNA in Adipocytes: FASN (adipocytes; [2]): 1.35
Relative Expression of mRNA in Adipocytes: GAPDH (adipocytes; [2]): 1
Relative Expression of mRNA in Adipocytes: PPARGC1A (adipocytes; [2]): 1.1
Relative Expression of mRNA in Adipocytes: PRDM16 (adipocytes; [2]): 0.7
Relative Expression of mRNA in Adipocytes: UCP-1 (adipocytes; [2]): 1.8
Real Time PCR value (any of the proteins of TABLE 2) (adipocytes; upper bound over all proteins, relative to untreated control): ≤ 2

Compound: CC(C)[C@@H]1CC[C@@H](C)C[C@H]1C(=O)NCC(NC(=O)[C@@H](C)N)c1ccccc1 (stereo partly drawn) [Comparative Example 1]
IC50 ([1]; Homo sapiens): 800 µM

These reach a lower IC50 ([1]; Homo sapiens). Values come first.

IC50 (human TRPM8): 0.34 µM
IC50 ([1]; Homo sapiens): 80 µM
Compound: CC(C)[C@@H]1CC[C@@H](C)C[C@H]1C(=O)OC[C@@H](NC(=O)[C@H](C)N)c1ccccc1 [Formula V]

IC50 (human TRPM8): 0.008 µM
IC50 ([1]; Homo sapiens): 40 µM
Compound: CC(C)[C@@H]1CC[C@@H](C)C[C@H]1C(=O)OC[C@@H](NC(=O)[C@@H](C)N)c1ccccc1 [Formula VI]

Source: patent publication US20200138764A1, “METHODS AND DEVICES FOR ACTIVATING ADIPOSE TISSUE” (The Procter & Gamble Company, priority 2018, published 2020)
